Source: article PMC2956513, “Novel tricyclic pyrazole BRAF inhibitors with imidazole or furan central scaffolds” (Bioorganic & Medicinal Chemistry, 2010)

Experiments:
V600EBRAF = V600EBRAF (Homo sapiens, UniProt P15056, V600E); assay: V600EBRAF kinase assay (MEK1/2 phosphorylation as endpoint); format: biochemical; details: for IC50: isolated full length V600EBRAF kinase activity; for BRAF activity in words: BRAF IC50 assay
Method: (§1) The biological activities of compounds 1a–p were assessed in three assays: • (1) Inhibition of the isolated ^V600EBRAF kinase activity (IC50 BRAF), measuring MEK1/2 phosphorylation as the endpoint.[15] […] We measured the IC50 BRAF values in this paper, since they represent the inhibition of BRAF function which we consider more meaningful than the binding of inhibitor to BRAF. • (2) Inhibition of ^V600EBRAF-dependent ERK phosphorylation in WM266.4 melanoma cells (IC50 pERK). • (3) Growth inhibition of WM266.4 melanoma cells measured by sulforhodamine-B (GI50 SRB).
(§2) These assays have been described by Niculescu-Duvaz et al.[15]

WM266.4 melanoma cells = assay: Growth inhibition of WM266.4 cells by sulforhodamine-B (SRB); format: cell-based, human; details: for GI50 / GI50 SRB activity in words: WM266.4 cells; for GI50: sulforhodamine-B
Method: as §1, §2

[1] = system: V600EBRAF-dependent ERK phosphorylation in WM266.4 melanoma cells; assay: Phospho-ERK IC50 assay in WM266.4 cells; format: cell-based, human; details: for IC50: Homo sapiens, WM 266-4, 6 h incubation, read-out: IC50 ppERK
Method: as §1
To determine the effect of compounds on BRAF activity in cells, WM266.4 cells were seeded at a density of 3 × 10^4 cells per well of a 96 well plate. The following day, test compounds were diluted into growth medium to 2× the desired final concentration and then added directly to the cells. After a 6 h incubation, the medium was removed and cells were fixed and permeabilized in 4% formaldehyde, 0.1% triton X-100 in PBS for 30 min. The wells were then blocked with 5% milk in PBS for 30 min at room temperature, followed by the addition of an antibody for phospho-ERK1/2 (Sigma, Dorset, UK) at […] in blocking solution. Plates were incubated for 3 h with shaking. Plates were washed three times with 0.1% Tween 20 using an ELx50 plate washer (BioTek, Winooski, USA). […] of a Europium-labelled anti-mouse secondary antibody (Perkin Elmer, Turku, Finland) was added to the wells in DELFIA assay buffer for 1 h. Plates were washed again and Enhancement solution was added to the wells and time resolved fluorescence was measured as instructed by the manufacturer after 20 min using a Spectramax M5 plate reader (Molecular Devices, Berkshire, UK). The plates were washed again and BCA protein assay reagent (Sigma, Dorset, UK) was added to the wells and incubated for 30 min at 37 °C. Absorbance at 570 nm was measured using a plate reader and used to normalize the fluorescence data. Inhibition of ERK phosphorylation was determined as a percentage of DMSO-treated cells and IC50 values were calculated using Prism (GraphPad Software, San Diego, USA).

BRAF = BRAF (Homo sapiens, UniProt P15056); assay: BRAF fluorescent ligand binding assay; details: alternative BRAF fluorescent ligand binding assay
[2] = PK assessment in mice after intraperitoneal administration; format: in vivo, mouse; details: CD1 nu/nu female mice, intraperitoneal 4 mg/kg, cassette dosing
Method: The apparent clearance, half-life (t1/2) and maximal plasma concentration of a representative tricyclic pyrazole, compound 1h, were determined in vivo in CD1 nu/nu female mice following an intraperitoneal administration of 1h.
Female Crl:CD1-Foxn1nu mice at least six weeks of age bearing mutant BRAF WM266.4 human tumor xenografts were used for the PK analyses. The mice were dosed intraperitoneally (4 mg/kg, equivalent to ca. 8 μmol/kg, 10 ml/kg, in 10% ethanol:40% PEG:50% Gelofusine v/v) in a cassette with 4 other compounds. Samples were taken at 8 time-points between 15 min and 24 h. Three mice were utilized per time-point. They were placed under isoflurane anaesthesia and blood for plasma preparation was taken by terminal cardiac puncture into heparinized syringes. Plasma samples were snap frozen in liquid nitrogen and then stored at −70 °C prior to analysis. All procedures involving animals were performed in accordance with national Home Office regulations under the Animals (Scientific Procedures) Act 1986 and within guidelines set out by the Institute’s Animal Ethics Committee and the United Kingdom Coordinating Committee for Cancer Research’s ad hoc Committee on the Welfare of Animals in Experimental Neoplasia.

Chain of V600EBRAF (P15056 whole entry V600E): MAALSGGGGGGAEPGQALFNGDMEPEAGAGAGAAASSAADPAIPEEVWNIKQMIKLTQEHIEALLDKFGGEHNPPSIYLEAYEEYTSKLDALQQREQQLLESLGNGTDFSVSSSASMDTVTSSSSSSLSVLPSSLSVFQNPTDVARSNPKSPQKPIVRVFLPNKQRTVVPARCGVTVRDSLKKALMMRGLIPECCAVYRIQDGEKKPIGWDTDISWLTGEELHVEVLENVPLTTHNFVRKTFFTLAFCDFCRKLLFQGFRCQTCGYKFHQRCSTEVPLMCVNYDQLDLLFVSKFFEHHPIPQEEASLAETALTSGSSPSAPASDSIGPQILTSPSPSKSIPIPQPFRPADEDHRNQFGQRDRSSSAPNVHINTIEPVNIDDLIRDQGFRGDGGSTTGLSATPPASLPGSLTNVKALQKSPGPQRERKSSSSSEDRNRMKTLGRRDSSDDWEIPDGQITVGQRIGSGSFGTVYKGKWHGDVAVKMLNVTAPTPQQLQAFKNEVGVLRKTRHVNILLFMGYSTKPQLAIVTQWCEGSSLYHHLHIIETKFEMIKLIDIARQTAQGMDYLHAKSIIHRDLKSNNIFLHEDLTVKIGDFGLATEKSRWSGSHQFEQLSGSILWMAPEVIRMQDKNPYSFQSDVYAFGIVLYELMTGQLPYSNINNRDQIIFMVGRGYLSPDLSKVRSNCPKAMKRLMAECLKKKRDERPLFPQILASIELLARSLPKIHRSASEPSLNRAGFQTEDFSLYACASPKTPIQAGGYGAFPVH
Chain of BRAF (P15056 whole entry): as the sequence (P15056 whole entry V600E) above, with E600V counted along it

| Structure (SMILES) | IC50 (V600EBRAF) [nM] | GI50 (WM266.4 melanoma cells; Homo sapiens, WM 266-4) [nM] | IC50 [1] [nM] | other results |
| --- | --- | --- | --- | --- |
| CN(C)CCOc1ccc(-c2nc(-c3ccc(-c4cc[nH]n4)cc3)c(-c3ccncc3)[nH]2)cc1 [1a, Dimethyl-[2-(4-{5-[4-(1H-pyrazol-3-yl)-phenyl]-4-pyridin-4-yl-1H-imidazol-2-yl}-phenoxy)-ethyl]-amine] | 1600 | 7400 | 5800 |  |
| Cc1c[nH]nc1-c1ccc(-c2nc(-c3ccc(OCCN(C)C)cc3)[nH]c2-c2ccncc2)cc1 [1b, Dimethyl-[2-(4-{5-[4-(4-methyl-1H-pyrazol-3-yl)-phenyl]-4-pyridin-4-yl-1H-imidazol-2-yl}-phenoxy)-ethyl]-amine] | 1200 | 3900 | 2020 |  |
| CN(C)CCOc1ccc(-c2nc(-c3ccc(-c4n[nH]cc4C#N)cc3)c(-c3ccncc3)[nH]2)cc1 [1c, 3-(4-{2-[4-(2-Dimethylamino-ethoxy)-phenyl]-5-pyridin-4-yl-3H-imidazol-4-yl}-phenyl)-1H-pyrazole-4-carbonitrile] | > 10000 | 11000 | > 100000 |  |
| CN(C)CCOc1ccc(-c2nc(-c3ccc(-c4n[nH]cc4Cl)cc3)c(-c3ccncc3)[nH]2)cc1 [1d, [2-(4-{5-[4-(4-Chloro-1H-pyrazol-3-yl)-phenyl]-4-pyridin-4-yl-1H-imidazol-2-yl}-phenoxy)-ethyl]-dimethyl-amine] | 3700 | 4100 | 10000 |  |
| CN(C)CCOc1ccc(-c2nc(-c3ccc4c(c3)CCc3cn[nH]c3-4)c(-c3ccncc3)[nH]2)cc1 [1e, (2-{4-[5-(4,5-Dihydro-2H-benzo[g]indazol-7-yl)-4-pyridin-4-yl-1H-imidazol-2-yl]-phenoxy}-ethyl)-dimethyl-amine] | 1840 |  | 5800 |  |
| CN(C)CCOc1ccc(-c2nc(-c3ccc4c(ccc5cn[nH]c54)c3)c(-c3ccncc3)[nH]2)cc1 [1f, (2-{4-[4-(1H-Benzo[g]indazol-7-yl)-5-pyridin-4-yl-1H-imidazol-2-yl]-phenoxy}-ethyl)-dimethyl-amine] | 1710 | 3300 | 25000 |  |
| CN(C)CCOc1ccc(-c2nc(-c3ccc4c(c3)CC3CC(=O)NN=C43)c(-c3ccncc3)[nH]2)cc1 (centres unmarked) [1g, 7-{2-[4-(2-Dimethylamino-ethoxy)-phenyl]-5-pyridin-4-yl-1H-imidazol-4-yl}-2,4,4a,5-tetrahydro-indeno[1,2-c]pyridazin-3-one] | > 10000 | 8900 | 100000 |  |
| CN(C)CCOc1ccc(-c2nc(-c3ccc4c(c3)Cc3cn[nH]c3-4)c(-c3ccncc3)[nH]2)cc1 [1h, (2-{4-[5-(2,4-Dihydro-indeno[1,2-c]pyrazol-6-yl)-4-pyridin-4-yl-1H-imidazol-2-yl]-phenoxy}-ethyl)-dimethyl-amine] | 230 | 1150 | 1090 | Kd (BRAF): 6.1 nM; half-life ([2]; CD1 nu/nu (Crl:CD1-Foxn1nu), mouse, ip, plasma, read-out: half-life (T1/2) (converted)): 3.9 h; Cmax ([2]; CD1 nu/nu (Crl:CD1-Foxn1nu), mouse, ip, plasma, read-out: maximal plasma concentration (Cmax)): 5.8 µM; plasma clearance (CL) ([2]; apparent clearance): 11 mL/min/kg; IC50 (WM266.4 melanoma cells; Homo sapiens, WM 266-4, SRB cellular IC50, value in PK text): 1100 nM |
| CN(C)CCOc1ccc(-c2nc(-c3ccc4c(c3)Cc3nn[nH]c3-4)c(-c3ccncc3)[nH]2)cc1 [1i, (2-{4-[5-(3,8-Dihydro-indeno[1,2-d] [1,2,3]triazol-6-yl)-4-pyridin-4-yl-1H-imidazol-2-yl]-phenoxy}-ethyl)-dimethyl-amine] | > 10000 |  | 4400 | BRAF activity in words (V600EBRAF): inactive |
| CN1CCN(c2ccc(-c3nc(-c4ccc5c(c4)Cc4cn[nH]c4-5)c(-c4ccncc4)[nH]3)cc2)CC1 [1j, 6-{2-[4-(4-Methyl-piperazin-1-yl)-phenyl]-5-pyridin-4-yl-3H-imidazol-4-yl}-2,4-dihydro-indeno[1,2-c]pyrazole] | 240 | 870 | 580 | BRAF activity in words (V600EBRAF): submicromolar activity; GI50 SRB activity in words (WM266.4 melanoma cells): submicromolar activity; IC50 ppERK activity in words [1]: submicromolar activity |
| c1cc(-c2[nH]c(C3CCNCC3)nc2-c2ccc3c(c2)Cc2cn[nH]c2-3)ccn1 [1k, 6-(2-Piperidin-4-yl-5-pyridin-4-yl-3H-imidazol-4-yl)-2,4-dihydro-indeno[1,2-c]pyrazole] | 1330 | 36000 | 4900 |  |
| CN(C)CCN1CCN(C(=O)c2cc(-c3ccc4c(c3)Cc3cn[nH]c3-4)c(-c3ccncc3)o2)CC1 [1l, [4-(2,4-Dihydro-indeno[1,2-c]pyrazol-6-yl)-5-pyridin-4-yl-furan-2-yl]-[4-(2-dimethylamino-ethyl)-piperazin-1-yl]-methanone] | 3600 | 1610 | 740 |  |
| O=C(c1cc(-c2ccc3c(c2)Cc2cn[nH]c2-3)c(-c2ccncc2)o1)N1CCOCC1 [1m, [4-(2,4-Dihydro-indeno[1,2-c]pyrazol-6-yl)-5-pyridin-4-yl-furan-2-yl]-morpholin-4-yl-methanone] | 2150 | 940 | 840 | GI50 SRB activity in words (WM266.4 melanoma cells): submicromolar activity; IC50 ppERK activity in words [1]: submicromolar activity |
| O=C(c1cc(-c2ccc3c(c2)Cc2cn[nH]c2-3)c(-c2ccncc2)o1)N1CCNCC1 [1n, [4-(2,4-Dihydro-indeno[1,2-c]pyrazol-6-yl)-5-pyridin-4-yl-furan-2-yl]-piperazin-1-yl-methanone] | 2780 | 1590 | 970 |  |
| CN1CCN(C(=O)c2cc(-c3ccc4c(c3)Cc3cn[nH]c3-4)c(-c3ccncc3)o2)CC1 [1o, [4-(2,4-Dihydro-indeno[1,2-c]pyrazol-6-yl)-5-pyridin-4-yl-furan-2-yl]-(4-methyl-piperazin-1-yl)-methanone] | 7500 | 1910 | 730 |  |
| CN(C)CCN1CCN(C(=O)c2cc(-c3ccc4c(c3)Cc3cnn(C)c3-4)c(-c3ccncc3)o2)CC1 [1p, [4-(2-Dimethylamino-ethyl)-piperazin-1-yl]-[4-(1-methyl-1,4-dihydro-indeno [1,2-c]pyrazol-6-yl)-5-pyridin-4-yl-furan-2-yl]-methanone] | > 10000 |  | > 10000 |  |
